Measurements from paper PMC12153356, “An antisense oligomer conjugate with unpredicted bactericidal activity against Fusobacterium nucleatum” (mBio, 2025).
Entries after “also recorded” stand apart in the source; their conditions may differ.

Assays:
[1] = tested on: F. nucleatum subsp. nucleatum ATCC 23726 (FNN23); experiment: Determination of bactericidal effect by CFU spot assay; type: cell-based, Fusobacterium nucleatum subsp. nucleatum ATCC 23726; details: 10 µM, 1 × 10^5 CFU/mL in MHB, spotting on BHI agar plates, up to 96 h; three replicates
Description: To investigate the bactericidal effects of PNAs an o.n. culture of FNN23 grown in ColB was diluted 1:50 in fresh ColB and grown to OD600 0.5. This culture was then diluted 1:2,500 to 1 × 10^5 CFU/mL in MHB, and 190 µL of the culture was dispensed into a transparent 96-well plate (Nunc, Thermo Fischer Scientific) together with 10 µL of respective 20× PNA stock or water and incubated at 37°C with 237 cpm shaking every 20 min. At the respective time points, 100 µL was taken out of the well, a 1:10 serial dilution series was prepared with 900 µL anoxic 1× PBS, and 5 µL of each dilution was spotted on BHI plates for CFU determination. Plates were incubated for 3 days at 37°C before taking out the plates of the anaerobic chamber for CFU counting.

[2] = tested on: E. coli Nissle 1917; experiment: Growth inhibition assay; type: cell-based, Escherichia coli Nissle 1917; details: 10 µM, MHB, 1 × 10^5 CFU/mL input, aerobic, 24 h
Description: Aerobic bacterial culture was conducted with E. coli K12 MG1655 (provided by D. Lee), E. coli Nissle 1917, and S. enterica serovar Typhimurium SL1344 (provided by D. Bumann, Biocenter Basel, Switzerland). The strains were streaked on lysogeny broth plates, incubated o.n. at 37°C and cultured in non-cation-adjusted MHB with aeration at 37°C and 220 rpm constant shaking.
To determine the MIC value, broth microdilutions were performed according to the standard protocol with some modifications ([119]). An overnight bacterial culture was diluted in a fresh ColB medium and grown to OD600 0.5 (mid-exponential phase). Fusobacteria were then diluted 1:2,500 or 1:250 in fresh MHB to obtain 1 × 10^5 CFU/mL or 1 × 10^6 CFU/mL as indicated. To determine the growth inhibition of P. gingivalis, an o.n. culture grown in BHI+ was diluted 1:1,500 in MHB to obtain 1 × 10^5 CFU/mL. E. coli K12, E. coli Nissle 1917, and S. enterica o.n. cultures grown in MHB were diluted 1:1,800 in fresh MHB to obtain 1 × 10^5 CFU/mL. […] Bacterial growth was monitored by measuring OD600 every 20 min with constant shaking in a plate reader (Biotek) under the normal atmospheric environment or positioned in the anaerobic chamber with double orbital shaking every 20 min prior to each measurement with 237 cpm at 37°C for 120 h.

[3] = tested on: F. nucleatum subsp. nucleatum ATCC 23726 (FNN23); experiment: MIC determination and growth inhibition assay (broth microdilution, OD600 over time); type: cell-based, Fusobacterium nucleatum subsp. nucleatum ATCC 23726; details: for Growth inhibition of FNN23: 10 µM compound, 1 × 10^5 CFU/mL, growth inhibition = no visible growth (OD600 <0.01) after 120 h
Description: To test CPP-PNA conjugates for growth inhibition, we diluted mid-exponential phase cultures of FNN23 to 1 × 10^5 colony forming units (CFUs) per milliliter in Mueller-Hinton Broth (MHB) and incubated the diluted bacteria with 10 µM of either (KFF)3K- or (RXR)4XB- conjugated PNAs targeting acpP, ftsZ or gyrA. Growth was monitored over time by OD600 measurements, with growth inhibition defined as no visible growth (OD600 <0.01) after 120 h. […] Based on these findings, we conclude that CPP-PNAs targeting fusobacterial mRNAs are not effective in antisense inhibition.
The following fusobacterial strains were used in this study: Fusobacterium nucleatum subsp. nucleatum ATCC 23726 (FNN23) acquired from the American Type Culture Collection (ATCC), F. nucleatum subsp. nucleatum ATCC 25586 (FNN25), F. nucleatum subsp. vincentii ATCC 49256 (FNV), and F. nucleatum subsp. polymorphum ATCC 10953 (FNP) acquired from the German Collection of Microorganisms and Cell Culture (DSMZ), F. nucleatum subsp. animalis 7_1 (FNA) and F. periodonticum 2_1_31 (FPE) both received as a kind gift from E. Allen-Vercoe (University of Guelph, Canada). All strains were routinely grown at 37°C in 80:10:10 (N2:H2:CO2) anaerobic conditions on 2% agar supplemented BHI plates (BHI, 1% [wt:vol] dried yeast extract, 1% [vol:vol] 50% sterile-filtered glucose solution, 5 µg/mL of hemin; 1% [vol:vol] fetal bovine serum) from frozen 20% glycerol stocks kept at −80°C. For liquid growth, the strains were cultured in Columbia broth (ColB; BD Difco). Precultures were prepared 24 h before inoculating the working culture at a 1:50 dilution in fresh ColB until OD600 0.5 was reached. Cultures were then diluted in non-cation adjusted Mueller-Hinton Broth (MHB, BD Difco) to the desired CFU/mL number. P. gingivalis (DSM 20709) was purchased from DSMZ and grown at 37°C in anaerobic conditions as mentioned above on 2% agar supplemented BHI+ plates (BHI, 1% [wt:vol] dried yeast extract, 1% [vol:vol] 50% sterile filtered glucose solution, 5 µg/ml of hemin; 10% [vol:vol] fetal bovine serum; and 1 µg/mL vitamin K3) for 4 days. For liquid growth, P. gingivalis was cultured in BHI+ medium (BHI, BD Difco supplemented with 1% [vol:vol] 50% sterile-filtered glucose solution, 5 µg/mL of hemin; 1% [vol:vol] fetal bovine serum, and 1 µg/mL vitamin K3). Precultures were prepared 24 h before inoculating the working culture at a 1:20 dilution in BHI+ until OD600 of 0.5 was reached. All plates, media, buffers, and reagents were brought into the anaerobic chamber the day before usage to ensure full oxygen depletion.
To determine the MIC value, broth microdilutions were performed according to the standard protocol with some modifications ([119]). An overnight bacterial culture was diluted in a fresh ColB medium and grown to OD600 0.5 (mid-exponential phase). […] To determine the growth inhibition of P. gingivalis, an o.n. culture grown in BHI+ was diluted 1:1,500 in MHB to obtain 1 × 10^5 CFU/mL. E. coli K12, E. coli Nissle 1917, and S. enterica o.n. cultures grown in MHB were diluted 1:1,800 in fresh MHB to obtain 1 × 10^5 CFU/mL. In total, 190 µL of diluted bacterial cultures were pipetted into a transparent 96-well plate (Nunc, Thermo Fischer Scientific) together with 10 µL of respective 20× CPP or CPP-PNA stock or water as control. Bacterial growth was monitored by measuring OD600 every 20 min with constant shaking in a plate reader (Biotek) under the normal atmospheric environment or positioned in the anaerobic chamber with double orbital shaking every 20 min prior to each measurement with 237 cpm at 37°C for 120 h.

Substance	Bactericidal effect (viable cells, CFU) on FNN23 [1]	Growth inhibition of E. coli Nissle 1917 [2]	Growth inhibition of FNN23 ([3]; MHB)	Effect on FNN23 at higher inoculum ([3]; 10 µM, 10^7 CFU/mL in MHB (Fig. S3B))	Growth inhibition of FNN23 by further batches of FUS79 ([3]; batch reordered from original vendor and in-house synthesis, MHB, 1 x 10^5 CFU per ml (Fig. S2A and B))	MIC of FUS79 ([3]; dilution series, FNN23 in MHB at 1 × 10^5 CFU/mL input, anaerobic, 37°C, OD600 <0.01, three replicates (Fig. 3A))	Effect on FNN23 in brain heart infusion (BHI) ([3]; peptide-rich medium BHI, 1 x 10^5 CFU per ml input (Fig. S3C))	Effect on FNN23 in Columbia broth (ColB) ([3]; peptide-rich medium ColB, 1 x 10^5 CFU per ml input (Fig. S3C))
(RXR)4XB-GACATAATTGT [FUS79, non-targeting (RXR)4XB-PNA 11-mer control, (RXR)4XB-…]	no visible CFUs detected on the agar plate after 96 h	no growth inhibition	completely inhibited growth; also recorded: inhibited the growth	no longer bactericidal	Both batches confirmed the FUS79-mediated growth inhibition	10 µM	no effect	no effect
RXRRXRRXRRXRXB [PNAscr]	no bactericidal effect	no growth inhibition	no impact on growth	–	–	–	–	–
